From ChEMBL document CHEMBL4419169, “Novel Ferroportin Inhibitors” (2018)
Active and inactive are the calls of the source. No cut-off for these calls is given here.

Assays:
[1] = system: Mus musculus; assay: Prevention of iron overload in beta2-microglobulin deficient male mouse assessed as reduction in [58Fe] liver iron accumulation at 60 mg/kg, po BID pre-dosed followed by exposure to iron-containing water and same regime was repeated for 14 days relative to control; type: functional; set-up: scale not given: the % may be the effect or the level left
[2] = system: Mus musculus; assay: Disease modifying capacity in mouse model of transfusion-independent beta-thalassemia intermedia assessed as decrease in leukocyte counts level at 20 mg/kg, po BID for 46 days relative to control; type: functional; set-up: scale not given: the % may be the effect or the level left
[3] = system: Mus musculus; assay: Prevention of iron overload in beta2-microglobulin deficient female mouse assessed as reduction in total liver iron accumulation at 60 mg/kg, po BID pre-dosed followed by exposure to iron-containing water and same regime was repeated for 14 days relative to control; type: functional; set-up: scale not given: the % may be the effect or the level left
[4] = system: Mus musculus; assay: Disease modifying capacity in mouse model of transfusion-independent beta-thalassemia intermedia assessed as increase in hematocrit levels at 60 mg/kg, po BID for 46 days relative to control; type: functional
[5] = system: Mus musculus; assay: Induction of hypoferremia in wild type C57BL/6 mouse assessed as decrease in serum iron levels at 30 mg/kg, po measured after 3 hrs post dose; type: functional; set-up: scale not given: the % may be the effect or the level left
[6] = system: Mus musculus; assay: Disease modifying capacity in mouse model of transfusion-independent beta-thalassemia intermedia assessed as decrease in [58Fe] spleen iron content at 20 mg/kg, po BID for 46 days relative to control; type: functional; set-up: scale not given: the % may be the effect or the level left
[7] = system: Mus musculus; assay: Prevention of iron overload in beta2-microglobulin deficient female mouse assessed as increase in spleen iron accumulation at 60 mg/kg, po BID pre-dosed followed by exposure to iron-containing water and same regime was repeated for 14 days relative to control; type: functional
[8] = target: T1, Ferroportin (Mus musculus) (UniProt Q9JHI9); assay: Inhibition of ferroportin in mouse J774 cells assessed as induce ferroportin ubiquitination and degradation at […] incubated for 10 mins by immunoprecipitation assay; type: cell-based
T1 sequence (whole entry): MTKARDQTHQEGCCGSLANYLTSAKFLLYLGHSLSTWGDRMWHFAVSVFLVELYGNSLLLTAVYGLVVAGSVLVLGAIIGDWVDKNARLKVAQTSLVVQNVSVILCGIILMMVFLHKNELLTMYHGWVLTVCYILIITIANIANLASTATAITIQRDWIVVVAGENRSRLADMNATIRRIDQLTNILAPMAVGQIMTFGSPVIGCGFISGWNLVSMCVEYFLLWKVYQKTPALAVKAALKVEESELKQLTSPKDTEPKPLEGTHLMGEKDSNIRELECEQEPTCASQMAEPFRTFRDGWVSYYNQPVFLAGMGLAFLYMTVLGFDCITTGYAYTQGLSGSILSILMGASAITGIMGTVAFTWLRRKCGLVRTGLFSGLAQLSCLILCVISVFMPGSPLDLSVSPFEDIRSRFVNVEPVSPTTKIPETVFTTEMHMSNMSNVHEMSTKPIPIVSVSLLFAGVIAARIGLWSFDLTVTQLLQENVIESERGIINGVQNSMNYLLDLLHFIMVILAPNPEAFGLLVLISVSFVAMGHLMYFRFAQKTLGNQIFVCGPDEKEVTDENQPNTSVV

[9] = target: T1, Ferroportin (Mus musculus); assay: Inhibition of ferroportin in mouse J774 cells assessed as induce ferroportin ubiquitination and degradation at […] incubated for 120 mins by immunoprecipitation assay; type: cell-based
[10] = system: Mus musculus; assay: Prevention of iron overload in beta2-microglobulin deficient female mouse assessed as reduction in [58Fe] liver iron accumulation at 60 mg/kg, po BID pre-dosed followed by exposure to iron-containing water and same regime was repeated for 14 days relative to control; type: functional; set-up: scale not given: the % may be the effect or the level left
[11] = system: Mus musculus; assay: Disease modifying capacity in mouse model of transfusion-independent beta-thalassemia intermedia assessed as decrease in blood reticulocyte counts at 60 mg/kg, po BID for 46 days relative to control; type: functional; set-up: scale not given: the % may be the effect or the level left
[12] = system: Mus musculus; assay: Disease modifying capacity in mouse model of transfusion-independent beta-thalassemia intermedia assessed as decrease in blood reticulocyte counts at 20 mg/kg, po BID for 46 days relative to control; type: functional; set-up: scale not given: the % may be the effect or the level left
[13] = system: Mus musculus; assay: Induction of hypoferremia in wild type C57BL/6 mouse assessed as decrease in serum iron levels at 100 mg/kg, po measured after 3 hrs post dose; type: functional; set-up: scale not given: the % may be the effect or the level left
[14] = system: Rattus norvegicus; assay: Prevention of iron absorption in anemic Wistar rat model of iron absorption assessed as inhibition of increase in serum iron at 30 mg/kg, po pre-dosed 1 hr before ferrous sulfate dosing and measured 3 hours after iron dosing; type: functional
[15] = system: Mus musculus; assay: Correction of anemia in mouse model of transfusion-independent beta-thalassemia intermedia assessed as hemoglobin levels at 60 mg/kg, po BID for 46 days and measured at day 20 to 48 (reference value: 70 to 80 g/L); type: functional
[16] = system: Mus musculus; assay: Prevention of iron overload in beta2-microglobulin deficient male mouse assessed as reduction in total liver iron accumulation at 60 mg/kg, po BID pre-dosed followed by exposure to iron-containing water and same regime was repeated for 14 days relative to control; type: functional; set-up: scale not given: the % may be the effect or the level left
[17] = system: Mus musculus; assay: Disease modifying capacity in mouse model of transfusion-independent beta-thalassemia intermedia assessed as increase in blood erythrocyte counts at 60 mg/kg, po BID for 46 days relative to control; type: functional
[18] = system: Rattus norvegicus; assay: Prevention of iron absorption in anemic Wistar rat model of iron absorption assessed as inhibition of increase in serum iron at 100 mg/kg, po pre-dosed 1 hr before ferrous sulfate dosing and measured 3 hours after iron dosing; type: functional
[19] = system: Mus musculus; assay: Disease modifying capacity in mouse model of transfusion-independent beta-thalassemia intermedia assessed as prevention of liver [58Fe] loading at 20 mg/kg, po BID for 46 days relative to control; type: functional
[20] = system: Mus musculus; assay: Disease modifying capacity in mouse model of transfusion-independent beta-thalassemia intermedia assessed as decrease in relative spleen weight at 60 mg/kg, po BID for 46 days relative to control; type: functional; set-up: scale not given: the % may be the effect or the level left
[21] = system: Mus musculus; assay: Prevention of iron overload in beta2-microglobulin deficient male mouse assessed as increase in spleen iron accumulation at 60 mg/kg, po BID pre-dosed followed by exposure to iron-containing water and same regime was repeated for 14 days relative to control; type: functional
[22] = system: Mus musculus; assay: Prevention of hyperferremia in iron overloaded beta2-microglobulin deficient male mouse assessed as reduction in serum iron level at 60 mg/kg, po measured after 1 hr relative to control; type: functional; set-up: scale not given: the % may be the effect or the level left
[23] = system: Mus musculus; assay: Prevention of hyperferremia in iron overloaded beta2-microglobulin deficient mouse assessed as reduction in serum iron level at 50 mg/kg, po measured after 3 hrs relative to control; type: functional, organism-based
[24] = system: Mus musculus; assay: Disease modifying capacity in mouse model of transfusion-independent beta-thalassemia intermedia assessed as prevention of liver [58Fe] loading at 60 mg/kg, po BID for 46 days relative to control; type: functional
[25] = system: Mus musculus; assay: Prevention of hyperferremia in iron overloaded beta2-microglobulin deficient female mouse assessed as reduction in serum iron level at 60 mg/kg, po measured after 1 hr relative to control; type: functional; set-up: scale not given: the % may be the effect or the level left
[26] = system: Mus musculus; assay: Disease modifying capacity in mouse model of transfusion-independent beta-thalassemia intermedia assessed as decrease in [58Fe] spleen iron content at 60 mg/kg, po BID for 46 days relative to control; type: functional; set-up: scale not given: the % may be the effect or the level left
[27] = system: Rattus norvegicus; assay: Prevention of iron absorption in anemic Wistar rat model of iron absorption assessed as inhibition of increase in serum iron at 10 mg/kg, po pre-dosed 1 hr before ferrous sulfate dosing and measured 3 hours after iron dosing; type: functional
[28] = system: Mus musculus; assay: Disease modifying capacity in mouse model of transfusion-independent beta-thalassemia intermedia assessed as increase in blood erythrocyte counts at 20 mg/kg, po BID for 46 days relative to control; type: functional
[29] = system: Mus musculus; assay: Disease modifying capacity in mouse model of transfusion-independent beta-thalassemia intermedia assessed as increase in hematocrit levels at 20 mg/kg, po BID for 46 days relative to control; type: functional
[30] = system: Mus musculus; assay: Induction of hypoferremia in wild type C57BL/6 mouse assessed as decrease in serum iron levels at 10 mg/kg, po measured after 3 hrs post dose; type: functional; set-up: scale not given: the % may be the effect or the level left

Cl.Cl.Cl.O=C(NCc1ncccc1F)c1csc(CCNCc2nc3ccccc3[nH]2)n1
Activity [1]: 81 - 95%
Activity [2]: 0%
Activity [3]: 66 - 67%
Activity [4]: 1%
Activity [5]: 30%
Activity [6]: 19%
Activity [7]: 9 - 85%
inhibition [8]: Active
inhibition [9]: Active
Activity [10]: 67 - 80%
Activity [11]: 43%
Activity [12]: 19%
Activity [13]: 50%
inhibition in vivo at 30 mg/kg [14]: 53%
Activity [15]: 13 g/L
Activity [16]: 69 - 85%
Activity [17]: 22%
inhibition in vivo at 100 mg/kg [18]: 97%
Activity [19]: 20%
Activity [20]: 48%
Activity [21]: 24 - 36%
Activity [22]: 10 - 47%
Activity [23]: Active
Activity [24]: 48%
Activity [25]: 32 - 58%
Activity [26]: 51%
inhibition in vivo at 10 mg/kg [27]: 32%
Activity [28]: 2%
Activity [29]: 0%
Activity [30]: 10%
